Source: patent US11033535B2, “Oxadiazoles and thiadiazoles as TGF-β inhibitors” (Southern Research Institute, priority 2017, dated 2021)
Where two headings read alike, the source gives them in different places.

Assay: Pharmacokinetic evaluation following a single oral and intravenous administration
Type: in vivo, CD1 mouse
Settings: for concentration at 1 h / concentration at 2 h / concentration at 4 h / concentration at 8 h / concentration at 24 h / AUC(0-inf) / AUC(0-t) / Cmax / MRT inf / half-life: CD1, mouse, plasma, po, 5 mg/kg; for concentration at 1 h / concentration at 2 h / concentration at 4 h / concentration at 8 h / concentration at 24 h: Table 5, PO Dose: 5 mg/kg
Description: A NMP stock solution was prepared by adding 1.136 mL of NMP to 5.68 mg of compound no. 42140 with vortexing and sonification, to obtain a solution with a concentration at 5 mg/mL of 42140:01. Next, to prepare an intravenous formulation, 0.100 mL of the 5 mg/mL stock solution was placed in a new vial. 0.100 mL of NMP and 0.400 mL of PEG400 were added with vortexing and sonification, followed by addition of 0.400 mL of saline with vortexing and sonification. […] 42140:01. Alternatively, to prepare an oral formulation, 0.200 mL of the 5 mg/mL stock solution was placed in a new vial. 0.400 mL of PEG400 was added with vortexing and sonification, followed by addition of 0.400 mL of saline with vortexing and sonifiction. […] 42140:01.
(§1) Briefly, the desired serial concentrations of working solutions were achieved by diluting a stock solution of the compound with 100% acetonitrile. 3 μL of working solutions (5, 10, 20, 50, 100, 500, 1000, 5000, 10000 ng/mL) were added to 30 μL of the blank CD1 mouse plasma to achieve calibration standards of 0.5-1000 ng/mL (0.5, 1, 2, 5, 10, 50, 100, 500, 1000 ng/mL) in a total volume of 33 μL. Five quality control samples at 1 ng/mL, 2 ng/mL, 5 ng/mL, 50 ng/mL and 800 ng/mL for plasma were prepared independently of those used for the calibration curves. These QC samples were prepared on the day of analysis in the same way as calibration standards.
Next, 33 μL standards, 33 μL QC samples, and 33 μL unknown samples (30 μL plasma with 3 μL blank solution) were added to 200 μL of acetonitrile containing IS mixture for precipitating protein, respectively. Then the samples were vortexed for 30 s. After centrifugation at 4 degree Celsius, 4000 rpm for 15 min, 3 μL of supernatant was injected into the LC/MS/MS system for quantitative analysis.
HPLC analysis was performed using 100% water with 0.1% formic acid (Solution A) and 100% acetonitrile with 0.1% formic acid (Solution B) with a flow rate of 0.6 mL/min.
A NMP stock solution was prepared by adding 2.092 mL of NMP to 10.46 mg of […] with vortexing and sonification, to obtain a solution with a concentration at 5 mg/mL of […]. Next, to prepare an intravenous formulation, 0.100 mL of the 5 mg/mL stock solution was placed in a new vial. 0.100 mL of NMP and 0.400 mL of PEG400 were added with vortexing and sonification, followed by addition of 0.400 mL of saline with vortexing and sonification. […] 42320:01. Alternatively, to prepare an oral formulation, 0.200 mL of the 5 mg/mL stock solution was placed in a new vial. 0.400 mL of PEG400 was added with vortexing and sonification, followed by addition of 0.400 mL of saline with vortexing and sonifiction. […] 42320:01.
as §1, with “50 ng/mL,” for “50 ng/mL”

[1] = Mouse 5, read-out: Concentration
[2] = Mouse 6, read-out: Concentration
[3] = mean, read-out: Concentration, Mean
[4] = Mouse 4, read-out: Concentration
[5] = Table 4, IV Dose: 1 mg/kg, Mouse 1
[6] = Table 4, IV Dose: 1 mg/kg, Mouse 2
[7] = Table 4, IV Dose: 1 mg/kg, Mouse 3
[8] = Table 4, IV Dose: 1 mg/kg, mean
[9] = Table 6, PO Dose: 5 mg/kg, Mouse 4
[10] = Table 6, PO Dose: 5 mg/kg, Mouse 5
[11] = Table 6, PO Dose: 5 mg/kg, Mouse 6
[12] = Table 6, PO Dose: 5 mg/kg, mean

## CNCc1ccc(C[C@H](NC(C)=O)c2nnc(-c3cccc(OC(F)(F)F)c3)s2)cc1 [Compound 42140, N-(2-(4-((methylamino)methyl)phenyl)-1-(5-(3-(trifluoromethoxy)phenyl)-1,3,4-thiadiazol-2-yl)ethyl)acetamide]
[1]
  concentration at 1 h: 129 ng/mL
  concentration at 2 h: 140 ng/mL
  concentration at 4 h: 112 ng/mL
  concentration at 8 h: 91.4 ng/mL
  concentration at 24 h: 22.7 ng/mL
[2]
  concentration at 1 h: 136 ng/mL
  concentration at 2 h: 175 ng/mL
  concentration at 4 h: 123 ng/mL
  concentration at 8 h: 93.5 ng/mL
  concentration at 24 h: 29.6 ng/mL
[3]
  concentration at 1 h: 127 ng/mL
  concentration at 2 h: 151 ng/mL
  concentration at 4 h: 113 ng/mL
  concentration at 8 h: 85.9 ng/mL
  concentration at 24 h: 27.4 ng/mL
[4]
  concentration at 2 h: 139 ng/mL
  concentration at 4 h: 103 ng/mL
  concentration at 8 h: 72.7 ng/mL
  concentration at 24 h: 29.8 ng/mL
Table 6, PO Dose: 5 mg/kg, Mouse 4, read-out: AUCInf
  AUC(0-inf): 2110 ng·h/mL
Table 6, PO Dose: 5 mg/kg, Mouse 4, read-out: AUClast
  AUC(0-t): 1620 ng·h/mL
Table 6, PO Dose: 5 mg/kg, Mouse 4, read-out: Cmax
  Cmax: 139 ng/mL
Table 6, PO Dose: 5 mg/kg, Mouse 4, read-out: MRTInf—obs
  MRT inf: 15.8 h
Table 6, PO Dose: 5 mg/kg, Mouse 4, read-out: T1/2 (converted)
  half-life: 690 min
Table 6, PO Dose: 5 mg/kg, Mouse 5, read-out: AUCInf
  AUC(0-inf): 2060 ng·h/mL
Table 6, PO Dose: 5 mg/kg, Mouse 5, read-out: AUClast
  AUC(0-t): 1790 ng·h/mL
Table 6, PO Dose: 5 mg/kg, Mouse 5, read-out: Cmax
  Cmax: 140 ng/mL
Table 6, PO Dose: 5 mg/kg, Mouse 5, read-out: MRTInf—obs
  MRT inf: 11.4 h
Table 6, PO Dose: 5 mg/kg, Mouse 5, read-out: T1/2 (converted)
  half-life: 508 min
Table 6, PO Dose: 5 mg/kg, Mouse 6, read-out: AUCInf
  AUC(0-inf): 2380 ng·h/mL
Table 6, PO Dose: 5 mg/kg, Mouse 6, read-out: AUClast
  AUC(0-t): 1960 ng·h/mL
Table 6, PO Dose: 5 mg/kg, Mouse 6, read-out: Cmax
  Cmax: 175 ng/mL
Table 6, PO Dose: 5 mg/kg, Mouse 6, read-out: MRTInf—obs
  MRT inf: 13.1 h
Table 6, PO Dose: 5 mg/kg, Mouse 6, read-out: T1/2 (converted)
  half-life: 583 min
Table 6, PO Dose: 5 mg/kg, mean, read-out: AUCInf, Mean
  AUC(0-inf): 2190 ng·h/mL
Table 6, PO Dose: 5 mg/kg, mean, read-out: AUClast, Mean
  AUC(0-t): 1790 ng·h/mL
Table 6, PO Dose: 5 mg/kg, mean, read-out: Cmax, Mean
  Cmax: 151 ng/mL
Table 6, PO Dose: 5 mg/kg, mean, read-out: MRTInf—obs, Mean
  MRT inf: 13.4 h
Table 6, PO Dose: 5 mg/kg, mean, read-out: T1/2, Mean (converted)
  half-life: 594 min
CD1, plasma, Table 6, PO Dose: 5 mg/kg, Mouse 4
  Tmax: 2 h
[5]
  AUClast/D: 462 h·ng/mL per mg/kg
  AUC—% Extrap—obs: 17.0%
  Cl_obs: 29.9 mL/min/kg
[6]
  AUClast/D: 389 h·ng/mL per mg/kg
  AUC—% Extrap—obs: 19.8%
  Cl_obs: 34.3 mL/min/kg
[7]
  AUClast/D: 394 h·ng/mL per mg/kg
  AUC—% Extrap—obs: 11.6%
  Cl_obs: 37.4 mL/min/kg
[8]
  AUClast/D, Mean: 415 h·ng/mL per mg/kg
  AUC—% Extrap—obs, Mean: 16.1%
  C0, Mean: 101 ng/mL
  Cl_obs, Mean: 33.9 mL/min/kg
[9]
  AUClast/D: 324 h·ng/mL per mg/kg
  AUC—% Extrap—obs: 23.4%
  F: 78.0%
[10]
  AUClast/D: 358 h·ng/mL per mg/kg
  AUC—% Extrap—obs: 13.4%
  F: 83.3%
[11]
  AUClast/D: 393 h·ng/mL per mg/kg
  AUC—% Extrap—obs: 17.4%
  F: 95.9%
[12]
  AUClast/D, Mean: 358 h·ng/mL per mg/kg
  AUC—% Extrap—obs, Mean: 18.1%
  F, Mean: 85.7%
